{"source": "paper PMC9148066", "about": "“The Medicinal Halophyte Frankenia laevis L. (Sea Heath) Has In Vitro Antioxidant Activity, α-Glucosidase Inhibition, and Cytotoxicity towards Hepatocarcinoma Cells” (Plants, 2022)", "key": {"RSA on ABTS radical": {"test": "RSA on ABTS radical", "conditions": "ABTS 7.4 mM, 6 min", "method": "(§1) The absorbance was measured in a microplate reader (Biotek Synergy 4), and the activity was calculated as a percentage of inhibition, relative to a control containing DMSO in place of the sample.\n(§2) The extracts were tested on DPPH and ABTS, as described elsewhere. The samples were mixed with radical solutions (DPPH: 120 µM; ABTS: 7.4 mM) in 96-well flat-bottom microtitration plates and were incubated in darkness at RT for 30 and 6 min, respectively. The synthetic antioxidant BHT (E320), used as a preservative in food and cosmetics, was used as a positive control at the same concentrations of the samples. The absorbance was measured at 517 and 734 nm for DPPH and ABTS, respectively."}, "RSA on DPPH radical": {"test": "RSA on DPPH radical", "conditions": "DPPH 120 µM, 30 min", "method": "as §1, §2"}, "[1]": {"system": "human lung carcinoma cells (A549)", "parameters": "method as in PMID 19471192", "conditions": "cited from earlier work"}, "[2]": {"test": "Copper chelating activity (CCA)", "conditions": "pyrocatechol violet, CuSO4", "experimental": "(§5) The CCA and ICA of the extracts and the positive control (EDTA) were assessed in 96-well microplates according to the methods described in Rodrigues et al. [53]. For CCA, the samples were mixed with 50 mM Na acetate buffer (pH 6), 4 mM pyrocatechol violet, and 50 µg/mL CuSO4 solution. For ICA, the samples were mixed with distilled water and 0.1 mg/mL FeCl2 solution. After 30 min, a 40 mM ferrozine solution was added. The change in absorbance was measured at 632 and 562 nm for CCA and ICA, correspondingly."}, "[3]": {"test": "Iron chelating activity (ICA)", "conditions": "FeCl2, ferrozine", "experimental": "as §5"}, "α-glucosidase": {"molecular_target": "α-glucosidase", "parameters": "method as in doi:10.1016/j.sajb.2020.01.011", "conditions": "cited from earlier work"}, "HepG2 cells [4]": {"system": "HepG2 cells", "conditions": "cited from earlier work"}, "HepG2 cells [5]": {"system": "HepG2 cells", "test": "Cellular viability assay (MTT), HepG2", "format": "cell-based", "conditions": "Homo sapiens, 72 h, read-out: HepG2 cytotoxic activity EC50", "method": "(§3) The HepG2 (human hepatocellular carcinoma) and S17 (murine bone marrow stromal) cell lines were maintained in Dulbecco’s modified eagle medium (DMEM) culture medium supplemented with 10% heat-inactivated fetal bovine serum (FBS), 1% L-glutamine (2 mM), and 1% penicillin (50 U/mL)/streptomycin (50 μg/mL) and were maintained at 37 °C in humidified atmosphere with 5% CO2.\n(§4) HepG2 and S17 cells were plated in 96-well tissue plates at a density of 5 × 10^3 cells/well and were incubated for 24 h. Then, the extracts were applied at several concentrations (3.125, 6.25, 12.5, 25, 50 and 100 µg/mL) for 72 h. The 3-(4,5-dimethylthiazol-2-yl)-2,5-diphenyltetrazolium bromide (MTT) colorimetric test was used to determine the cellular viability (Biotek Synergy 4), as formerly detailed. […] The selectivity index (SI) was obtained by dividing the EC50 value of non-tumoral cells (S17) by the EC50 of tumoral cells (HepG2)."}, "[6]": {"test": "Cellular viability assay (MTT), S17", "format": "cell-based", "conditions": "mouse, S17 bone marrow stromal cells (non-tumoral), read-out: S17 cytotoxic activity EC50", "method": "as §3, §4"}}, "note": "Marks after values point to notes of the source that are not given here.", "data": [{"smiles": "Cc1cc(C(C)(C)C)c(O)c(C(C)(C)C)c1", "note": "[BHT, butylated hydroxytoluene]", "values": [{"measurement": "RSA-ABTS EC50", "setting": "RSA on ABTS radical", "result": "0.06 ± 0.00 ^a mg/mL"}, {"measurement": "RSA-DPPH EC50", "setting": "RSA on DPPH radical", "result": "0.11 ± 0.00 ^a mg/mL"}]}, {"smiles": "CC1(C)CCCC2(C)OC(=O)C=C12", "note": "(centres unmarked) [Dihydroactinidiolide]", "values": [{"measurement": "Cytotoxic effect on A549", "setting": "[1]", "result": "strong cytotoxic effect"}]}, {"smiles": "O=C(O)CN(CCN(CC(=O)O)CC(=O)O)CC(=O)O", "note": "[EDTA, ethylenediamine tetraacetic acid]", "values": [{"measurement": "CCA EC50", "setting": "[2]", "result": "0.17 ± 0.00 ^a mg/mL"}, {"measurement": "ICA EC50", "setting": "[3]", "result": "0.06 ± 0.00 ^a mg/mL"}]}, {"smiles": "CC1(C)C[C@H](O)C[C@@]2(C)OC(=O)C=C12", "note": "[Loliolide]", "values": [{"measurement": "α-glucosidase EC50", "setting": "α-glucosidase; approx. equivalent of the µM value", "result": "approx. 76 µg/mL"}, {"measurement": "EC50", "setting": "α-glucosidase", "result": 388, "unit": "µM"}, {"measurement": "Cytotoxicity against HepG2 cells", "setting": "HepG2 cells [4]", "result": "selective cytotoxicity"}]}, {"smiles": "COc1cc([C@@H]2c3cc4c(cc3[C@@H](O[C@@H]3O[C@@H]5CO[C@@H](C)O[C@H]5[C@H](O)[C@H]3O)[C@H]3COC(=O)[C@H]23)OCO4)cc(OC)c1O", "note": "[etoposide]", "values": [{"measurement": "EC50", "setting": "HepG2 cells [5]", "result": "1.45 ± 0.15", "unit": "µg/mL"}, {"measurement": "EC50 at 72 h", "setting": "[6]", "result": "7.86 ± 0.25", "unit": "µg/mL"}]}, {"smiles": "CC1(C)C[C@H](O)C[C@]2(C)OC(=O)C=C12", "note": "[isololiolide, Isololiolide]", "values": [{"measurement": "Cytotoxicity against HepG2 cells", "setting": "HepG2 cells [4]", "result": "selective cytotoxicity"}]}]}
